Assay results from PMC12564639, “Discovery of a Novel Anticoagulant Cystine Knot Peptide from Spider Venom Gland Transcriptome” (International Journal of Molecular Sciences, 2025).
Peptide text beside a SMILES is read from it.

Assays:
[1] = target: T1, Human Activated Protein C (APC-1.0) (Homo sapiens, UniProt P04070); test: Bio-layer interferometry (BLI) binding; conditions: Octet R2, SA biosensors, biotinylated APC 10 µg/mL, GC38 3.125-50 μM, PBS with 0.02% Tween-20, association 300 s, dissociation 180 s, average of three, read-out: dissociation constant (KD)
T1 construct: purchased Enzyme Research Laboratories, Inc., South Bend, IN, USA APC-1.0
From the text: Human Activated Protein C (APC-1.0) was purchased from Enzyme Research Laboratories, Inc., South Bend, IN, USA. […] Activated Partial Thromboplastin Time (APTT) Test Kit (TC0306) was bought from Senkey Biotechnology Co., Ltd., Kunming, China. Prothrombin Time (PT) Test Kit (GMS10176) was purchased from GENMED Scientifics Inc., Shanghai, China. Streptavidin (SA) Biosensors (18-5019) were obtained from Sartorius AG, Göttingen, Lower Saxony, Germany. PBS (21-040-CVC) was bought from Corning Incorporated, Corning, NY, USA. Tween-20 (BS361B) was purchased from Biosharp Life Sciences, Hefei, Anhui, China. Trifluoroacetic acid (TFA, T818778-500ml, CAS: 76-05-1) and CaCl2 (C805225) were obtained from Macklin Biochemical Co., Ltd., Shanghai, China. L-oxidized glutathione (GSSG, V900363), Rose Bengal Dye (content 95%, CAS: 632-69-9, 330000-5G), and HEPES (V900477-500G) were purchased from Sigma-Aldrich LLC, St. Louis, MO, USA (Shanghai branch: Sigma-Aldrich Shanghai Trading Co., Ltd., Shanghai, China). […]
The binding affinity between APC and GC38 was measured using the Octet® R2 system (ForteBio, Fremont, CA, USA) with Streptavidin (SA) biosensors. […] Data were acquired and analyzed using Octet® Data Acquisition and Analysis software version 8.2. […]

[2] = system: plasma clotting (coagulation pathway); test: Plasma recalcification time (PRT); type: biochemical; conditions: fresh plasma, 10 min at 37 °C, n = 3
Procedure: Plasma recalcification time (PRT) was used to evaluate the effects of GC38 on the coagulation pathway. Fresh plasma was incubated with GC38 (0.1, 1, and 10 µM) for 10 min at 37 °C. After incubation, the plasma was mixed with an equal volume of 25 mM calcium chloride solution, and the timer was immediately started. The time required for plasma clot formation was recorded. The group treated with PBS served as the control. Each concentration was tested in triplicate, and the average value and PRT at maximum reactive velocity were reported.

[3] = system: human embryonic kidney cells (HEK293T); test: Cytotoxicity (CCK-8), HEK293T; type: cell-based; conditions: 24 h, n = 3
Procedure: The cytotoxicity of GC38 was evaluated in human embryonic kidney cells (HEK293T), human keratinocytes (HaCaT), and murine macrophage (RAW264.7) cell lines. The cells were from Kunming Cell Bank, Chinese Academy of Sciences. HEK293T and HaCaT cells were cultured in DMEM supplemented with 10% fetal bovine serum (FBS) and 1% penicillin-streptomycin, and RAW264.7 cells were maintained in RPMI 1640 containing 10% FBS and 1% penicillin–streptomycin, with all cell lines incubated at 37 °C under 5% CO2. For cytotoxicity assessment, cells were seeded at a density of 1 × 10^5 cells per well in 96-well plates and incubated for 12 h. […] After 24 h incubation, cell viability was determined using the CCK-8 assay (10 μL/well). Absorbance was measured at 450 nm using a multi-mode microplate reader (BioTek Synergy™ H1, Winooski, VT, USA). Untreated cells and cells treated with 10% DMSO served as negative and positive controls, respectively. Viability percentages were calculated relative to the untreated control. All experiments were conducted in triplicate, and data were expressed as mean ± SEM.

CSCC[C@@H]1NC(=O)[C@H](CC(N)=O)NC(=O)CNC(=O)CNC(=O)[C@H](Cc2c[nH]cn2)NC(=O)[C@H](CCCNC(=N)N)NC(=O)CNC(=O)[C@@H]2CSSC[C@@H]3NC(=O)[C@H](CCCNC(=N)N)NC(=O)[C@H](C)NC(=O)CNC(=O)[C@H](CCCCN)NC(=O)CNC(=O)[C@H](CO)NC(=O)[C@@H](NC(=O)CN)CSSC[C@H](NC(=O)[C@H](CSSC[C@@H](C(=O)N[C@@H](CCC(=O)O)C(=O)N[C@@H](Cc4c[nH]c5ccccc45)C(=O)N[C@@H](CC(N)=O)C(=O)N[C@@H](Cc4c[nH]c5ccccc45)C(=O)N[C@@H](CCCCN)C(=O)N[C@H](C(=O)NCC(=O)O)[C@@H](C)O)NC(=O)[C@H](CO)NC(=O)[C@H](CCCCN)NC(=O)[C@H](Cc4ccc(O)cc4)NC1=O)NC(=O)[C@H](CCCCN)NC(=O)[C@H](CO)NC(=O)[C@@H]1CCCN1C(=O)[C@H](C)NC3=O)C(=O)N[C@@H](CO)C(=O)NCC(=O)N[C@@H](CC(C)C)C(=O)N[C@@H](CO)C(=O)N2 [GC38] (HELM PEPTIDE1{G.C.S.G.K.G.A.R.C.A.P.S.K.C.C.S.G.L.S.C.G.R.H.G.G.N.M.Y.K.S.C.E.W.N.W.K.T.G}$PEPTIDE1,PEPTIDE1,2:R3-15:R3|PEPTIDE1,PEPTIDE1,9:R3-20:R3|PEPTIDE1,PEPTIDE1,14:R3-31:R3$$$V2.0)
Kd [1]: 6.16 µM | PRT clotting time versus negative control (time to Vmax) ([2]; GC38 10 μM, then 25 mM CaCl2, mean): 1.4 fold | clotting time in plasma (PRT), dose response ([2]; GC38 0.1-10 μM, then equal volume 25 mM CaCl2): prolonged clotting time in plasma in a dose-responsive manner | cell viability HEK293T ([3]; 50 μM, serum-free medium, CCK-8, 450 nm, relative to untreated control): greater than 95% | cytotoxicity HEK293T ([3]; 0.1–50 μM, CCK-8): negligible cytotoxicity
